ChEMBL document CHEMBL1201862, “PubChem BioAssay data set” (2004)
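In this assay, cells in 96-well plates receive the compound at five concentrations for 48 hours. Endpoints are linearly interpolated between the surrounding concentrations. The concentration for 50% growth inhibition is given as GI50.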 The source made the active and inactive calls. Cut-off read from the data, not from the text of the source: active = GI50 up to about 1.1 µM and inactive = higher.

Assays:
Test in all cases: NCI tumour cell line growth inhibition, 48 h
UACC-257 = tested on: UACC-257
PC-3 = tested on: PC-3
MOLT-4 = tested on: MOLT-4
OVCAR-3 = tested on: OVCAR-3
HOP-62 = tested on: HOP-62
SNB-19 = tested on: SNB-19
NCI-H226 = tested on: NCI-H226
SK-MEL-5 = tested on: SK-MEL-5
RXF 393 = tested on: RXF 393
LOX IMVI = tested on: LOX IMVI
HCC 2998 = tested on: HCC 2998
NCI-H460 = tested on: NCI-H460
SK-MEL-2 = tested on: SK-MEL-2
SF-268 = tested on: SF-268
SW-620 = tested on: SW-620
OVCAR-8 = tested on: OVCAR-8
TK-10 = tested on: TK-10
NCI/ADR-RES = tested on: NCI/ADR-RES
MCF7 = tested on: MCF7
HOP-92 = tested on: HOP-92

Measured: GI50

Cc1nc2ccc(NC3OCC(O)C(O)C3O)cc2c(=O)n1-c1ccccc1 (stereo unspecified)
inactive: UACC-257 > 100 µM | PC-3 > 100 µM | MOLT-4 > 100 µM | OVCAR-3 > 100 µM | HOP-62 > 100 µM | SNB-19 > 100 µM | NCI-H226 > 100 µM | SK-MEL-5 > 100 µM | RXF 393 > 100 µM | LOX IMVI > 100 µM | HCC 2998 > 100 µM | NCI-H460 > 100 µM | SK-MEL-2 > 100 µM | SF-268 > 100 µM | SW-620 > 100 µM | OVCAR-8 > 100 µM | TK-10 > 100 µM | NCI/ADR-RES > 100 µM | MCF7 > 100 µM

O=C(O)CNc1ccc(C(=O)O)cc1
inactive: HOP-92 > 100 µM | UACC-257 > 100 µM | PC-3 > 100 µM | MOLT-4 > 100 µM | OVCAR-3 > 100 µM | HOP-62 > 100 µM | SNB-19 > 100 µM | NCI-H226 > 100 µM | SK-MEL-5 > 100 µM | RXF 393 > 100 µM | LOX IMVI > 100 µM | NCI-H460 > 100 µM | SK-MEL-2 > 100 µM | SF-268 > 100 µM | SW-620 > 100 µM | OVCAR-8 > 100 µM | TK-10 > 100 µM | NCI/ADR-RES > 100 µM | MCF7 > 100 µM

COc1nc(C#CC2(O)CCCCC2)nc(OC)n1
inactive: UACC-257 14.6 µM | PC-3 5.62 µM | MOLT-4 3.53 µM | OVCAR-3 8.15 µM | HOP-62 34.2 µM | SNB-19 38.7 µM | SK-MEL-5 7.43 µM | RXF 393 12.9 µM | LOX IMVI 2.83 µM | NCI-H460 24.3 µM | SK-MEL-2 14 µM | SF-268 14.3 µM | SW-620 8.91 µM | OVCAR-8 13 µM | NCI/ADR-RES 23.6 µM | MCF7 4.28 µM

C[N+]1(C)CC=C(N2CCOCC2)CC1
inactive: UACC-257 > 10 µM | PC-3 > 10 µM | MOLT-4 > 10 µM | OVCAR-3 > 10 µM | HOP-62 > 10 µM | SNB-19 > 10 µM | NCI-H226 > 10 µM | SK-MEL-5 > 10 µM | RXF 393 > 10 µM | LOX IMVI > 10 µM | HCC 2998 > 10 µM | NCI-H460 > 10 µM | SK-MEL-2 > 10 µM | SF-268 > 10 µM | SW-620 > 10 µM | OVCAR-8 > 10 µM | TK-10 > 10 µM | NCI/ADR-RES > 10 µM | MCF7 > 10 µM

CC1(C)CCCCCCCCCC2CC2CCC(C)(C)C1=O (stereo unspecified)
inactive: HOP-92 26.3 µM | UACC-257 23.6 µM | PC-3 28.8 µM | MOLT-4 28.5 µM | OVCAR-3 12.7 µM | HOP-62 21.8 µM | SNB-19 34.6 µM | NCI-H226 14.2 µM | SK-MEL-5 22.8 µM | RXF 393 15.4 µM | LOX IMVI 19 µM | NCI-H460 21.1 µM | SK-MEL-2 18.6 µM | SF-268 22.4 µM | SW-620 35.9 µM | OVCAR-8 30.2 µM | TK-10 22.9 µM | NCI/ADR-RES 21 µM | MCF7 16.4 µM

Cc1ccc(C(=O)Nc2ccc(CP(=O)(O)O)cc2)cc1NC(=O)c1cccc(NC(=O)Nc2cccc(C(=O)Nc3cc(C(=O)Nc4ccc(CP(=O)(O)O)cc4)ccc3C)c2)c1
inactive: UACC-257 > 100 µM | PC-3 > 100 µM | OVCAR-3 > 100 µM | HOP-62 > 100 µM | SNB-19 > 100 µM | NCI-H226 > 100 µM | SK-MEL-5 > 100 µM | RXF 393 > 100 µM | LOX IMVI > 100 µM | HCC 2998 > 100 µM | NCI-H460 > 100 µM | SK-MEL-2 > 100 µM | SF-268 > 100 µM | SW-620 > 100 µM | OVCAR-8 > 100 µM | TK-10 > 100 µM | NCI/ADR-RES > 100 µM | MCF7 > 100 µM

Cc1nc(N)c(N2CCN(Cc3ccccc3)CC2)c(O)n1
inactive: UACC-257 > 100 µM | PC-3 > 100 µM | MOLT-4 > 100 µM | OVCAR-3 > 100 µM | HOP-62 > 100 µM | SNB-19 > 100 µM | NCI-H226 > 100 µM | LOX IMVI > 100 µM | HCC 2998 > 100 µM | NCI-H460 > 100 µM | SK-MEL-2 > 100 µM | SF-268 > 100 µM | SW-620 > 100 µM | OVCAR-8 > 100 µM | TK-10 > 100 µM | NCI/ADR-RES > 100 µM | MCF7 > 100 µM

S=C(Nc1cccc(Cl)c1)Nc1ccccn1
inactive: UACC-257 > 100 µM | PC-3 > 100 µM | MOLT-4 > 100 µM | OVCAR-3 > 100 µM | HOP-62 > 100 µM | SNB-19 > 100 µM | NCI-H226 > 100 µM | SK-MEL-5 > 100 µM | RXF 393 > 100 µM | LOX IMVI > 100 µM | NCI-H460 > 100 µM | SK-MEL-2 > 100 µM | SF-268 > 100 µM | SW-620 > 100 µM | OVCAR-8 > 100 µM | TK-10 > 100 µM | NCI/ADR-RES > 100 µM | MCF7 > 100 µM

Cc1ccc2nc3c(C)c(Cl)c(=O)cc-3sc2c1
inactive: HOP-92 34.4 µM | UACC-257 16.6 µM | PC-3 8.93 µM | MOLT-4 4.98 µM | OVCAR-3 6.97 µM | HOP-62 27.5 µM | SNB-19 24 µM | NCI-H226 5.06 µM | SK-MEL-5 13.6 µM | RXF 393 22.9 µM | LOX IMVI 13.9 µM | HCC 2998 40.3 µM | NCI-H460 23.1 µM | SK-MEL-2 17.2 µM | SF-268 26.8 µM | SW-620 28.6 µM | OVCAR-8 11.2 µM | TK-10 56.8 µM | MCF7 17.6 µM

CCCNC1=NC(C)=CSC(Nc2ccccc2)=C1C#N
inactive: PC-3 > 100 µM | MOLT-4 > 100 µM | OVCAR-3 > 100 µM | HOP-62 > 100 µM | SNB-19 > 100 µM | SK-MEL-5 > 100 µM | RXF 393 > 100 µM | SK-MEL-2 > 100 µM | SF-268 > 100 µM | SW-620 > 100 µM | OVCAR-8 > 100 µM | TK-10 > 100 µM | NCI/ADR-RES > 100 µM | MCF7 > 100 µM

C=C1C(OC2O[C@@H]3O[C@@]4(C)CC[C@H]5[C@H](C)CC[C@@H](C2=C)[C@@]35O4)O[C@@H]2O[C@@]3(C)CC[C@H]4[C@H](C)CC[C@@H]1[C@@]24O3 (stereo partly specified)
inactive: HOP-92 > 50 µM | UACC-257 > 50 µM | PC-3 > 50 µM | MOLT-4 > 50 µM | OVCAR-3 > 50 µM | HOP-62 > 50 µM | SNB-19 > 50 µM | NCI-H226 > 50 µM | SK-MEL-5 > 50 µM | RXF 393 > 50 µM | LOX IMVI > 50 µM | HCC 2998 > 50 µM | NCI-H460 > 50 µM | SK-MEL-2 > 50 µM | SF-268 > 50 µM | SW-620 > 50 µM | TK-10 > 50 µM | MCF7 > 50 µM
